In ChEMBL document CHEMBL1275281, “Synthesis, anti-inflammatory evaluation and docking studies of some new fluorinated fused quinazolines” (2010) one finds inhibition in vivo data, which are given here for 7 compounds.

Structures are written as SMILES.

The test system of assay [1] is Rattus norvegicus. The experiment in a line: Antiinflammatory activity in Wistar rat assessed as inhibition of carrageenan-induced paw edema at 10 mg/kg, po administered 1 hr before carrageenan challenge and measured 2 hrs post carrageenan challenge relative to untreated control. Format: functional.
For assay [2], the system named is Rattus norvegicus. The experiment in a line: Antiinflammatory activity in Wistar rat assessed as inhibition of carrageenan-induced paw edema at 10 mg/kg, po administered 1 hr before carrageenan challenge and measured 4 hrs post carrageenan challenge relative to untreated control. Format: functional.

Regarding `NC(=O)c1c(-c2ccccc2)cc(C(F)(F)F)c2c1N=C(c1ccco1)N1CCN=C21`, the inhibition in vivo at 10 mg/kg in the assay on Rattus norvegicus [1] amounted to 31%; with Rattus norvegicus [2] it was 30%.

With `NC(=O)c1c(C(F)(F)F)cc(-c2ccccc2)c2c1N=C(c1ccco1)N1CCN=C21`, the inhibition in vivo at 10 mg/kg is 29% with Rattus norvegicus [1] and 28% with Rattus norvegicus [2].

For `NC(=O)c1c(-c2ccccc2)cc(C(F)(F)F)c2c1N=C(c1ccc(O)cc1)N1CCN=C21`, the values for the inhibition in vivo at 10 mg/kg with Rattus norvegicus [1] and in the assay with Rattus norvegicus [2] were 61% and 60%, respectively.

For `NC(=O)c1c(C(F)(F)F)cc(-c2ccccc2)c2c1N=C(c1ccc(O)cc1)N1CCN=C21`, the figures for the inhibition in vivo at 10 mg/kg with Rattus norvegicus [1] and in the assay with Rattus norvegicus [2] were 59% and 57%, respectively.

As for `NC(=O)c1c(-c2ccccc2)cc(C(F)(F)F)c2c1N=C(c1cccs1)N1CCN=C21`, the figures for the inhibition in vivo at 10 mg/kg in the assay with Rattus norvegicus [1] and with Rattus norvegicus [2] were 25% and 24%, respectively.

Consider `NC(=O)c1c(C(F)(F)F)cc(-c2ccccc2)c2c1N=C(c1cccs1)N1CCN=C21`, for which the inhibition in vivo at 10 mg/kg in the assay with Rattus norvegicus [1] turned out to be 34%; with Rattus norvegicus [2], 33%.

For `COc1ccc2c(c1)c(CC(=O)O)c(C)n2C(=O)c1ccc(Cl)cc1` [INDOMETHACIN], the inhibition in vivo at 10 mg/kg in the assay with Rattus norvegicus [1] came to 79%; with Rattus norvegicus [2], 75%.
